The subject of data set [1] is Gambusia affinis. In words: Toxicity against Gambusia affinis. In kind it is organism-based. The conditions noted are these: in vivo.
The subject of data set [2] is Bacillus subtilis. Put plainly: Antibacterial activity against Bacillus subtilis DSM 347. In kind it is functional.
Data set [3] has as its system Artemia salina. Put plainly: Toxicity against Artemia salina. In kind it is organism-based. The conditions noted are these: in vivo.
Data set [4] relates to Micrococcus luteus. In words: Antibacterial activity against Micrococcus luteus DSM 348. In kind it is functional.

Values after ≈ are worked out from the molar mass of the structure shown.

The values that follow come from ChEMBL document CHEMBL1144114, “A new cacospongionolide derivative from the sponge Fasciospongia cavernosa” (J Nat Prod, 1999).

Turning to `C[C@H]1CC=C2[C@H](CCCC2(C)C)[C@@]1(C)CCC1=CC[C@H](C2=CC(=O)O[C@H]2O)OC1` [CACOSPONGIONOLIDE F], the LC50 was 0.7 ppm in data set [1] and 0.17 ppm in data set [3]. In addition, the MIC in data set [2] and in data set [4] was 0.78 µg/mL (≈ 1.95 µM) each time.
